Measured values from US20250346584A1, “NOVEL KAPPA OPIOID LIGANDS” (The Scripps Research Institute, priority 2012, published 2025).

What follows are compounds tested against kappa opioid receptor (OPRK1) (Homo sapiens (Human), UniProt P41145) (assay: OPRK1 antagonist assay (b-arrestin-2-TEV / b-lactamase reporter cell line, EC80 U-50488 challenge)). Conditions: read-out: IC50 nM (% inhib if other than 50%); antagonist mode vs EC80 U-50488; NA = not active at concentrations up to 10 μM.
Format: cell-based

kappa opioid receptor (OPRK1), sequence (P41145 whole entry): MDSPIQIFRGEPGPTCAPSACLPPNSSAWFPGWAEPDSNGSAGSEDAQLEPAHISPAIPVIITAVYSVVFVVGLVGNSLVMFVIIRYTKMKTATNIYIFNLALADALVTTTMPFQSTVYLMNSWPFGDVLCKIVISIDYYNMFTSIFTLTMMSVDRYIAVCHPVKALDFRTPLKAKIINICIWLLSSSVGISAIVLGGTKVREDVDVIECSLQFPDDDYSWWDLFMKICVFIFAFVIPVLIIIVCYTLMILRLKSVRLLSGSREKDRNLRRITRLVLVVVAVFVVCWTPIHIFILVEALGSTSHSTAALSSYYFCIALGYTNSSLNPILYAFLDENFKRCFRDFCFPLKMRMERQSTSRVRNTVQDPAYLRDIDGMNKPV

SMILES | IC50 [nM]
Cc1ccc2cc(-c3nc(C)no3)c(N3CCC(NC4CCCCC4O)CC3)nc2c1 (centres unmarked) [compound 256] | 631
Cc1ccc2cc(-c3nc(C)no3)c(N3CCC(NC4CCOCC4)CC3)nc2c1 [compound 257] | 930
COC1CN(c2nc3ccccc3cc2C2=NCC(C)O2)CCC1NC1CCCCC1 (centres unmarked) [compound 258] | 7160
COC1CN(c2nc3ccccc3cc2C2=NC(C)CO2)CCC1NC1CCCCC1 (centres unmarked) [compound 259] | 372
Cc1ccc2nc(N3CCC(NC4CCCCCCC4)CC3)c(-c3nc(C)no3)cc2c1 [compound 260] | 261
Cc1ccc2nc(N3CCC(NCC4CCCCC4)CC3)c(-c3nc(C)no3)cc2c1 [compound 261] | 1470
Cc1ccc2nc(N3CCC(NCC4CCCO4)CC3)c(-c3nc(C)no3)cc2c1 (centres unmarked) [compound 262] | 60
COC1CN(c2nc3ccccc3cc2-c2ncccn2)CCC1NC1CCCCC1 (centres unmarked) [compound 263] | 1770
OCC1CN(c2nc3ccccc3cc2-c2ncccn2)CCC1NC1CCCCC1 (centres unmarked) [compound 264] | 56
Cc1ccc2nc(N3CCC(NC4CC5CCC4C5)CC3)c(-c3nc(C)no3)cc2c1 (centres unmarked) [compound 265] | 49
Cc1ccc2nc(N3CCC(N4CCCCC4)CC3)c(-c3nc(C)no3)cc2c1 [compound 266] | 1740
Cc1ccc2nc(N3CCC(N(C)C4CCOCC4)CC3)c(-c3nc(C)no3)cc2c1 [compound 267] | 180
CCc1ccc2nc(N3CCC(NC4CCCCC4)C(OC)C3)c(-c3nc(C)no3)cc2c1 (centres unmarked) [compound 268] | 37
CCc1ccc2nc(N3CCC(NC4CCCCC4)C(CO)C3)c(-c3nc(C)no3)cc2c1 (centres unmarked) [compound 269] | 30
Cc1ccc2nc(N3CCC(NC4COC4)CC3)c(-c3nc(C)no3)cc2c1 [compound 270] | 4470
Cc1ccc2nc(N3CCC(NC4(C)CCOCC4)CC3)c(-c3nc(C)no3)cc2c1 [compound 271] | 419
Cc1cc(-c2nc(C)no2)c(N2CCC(NC3CCOCC3)CC2)nn1 [compound 272] | 8700
Cc1ccc2nc(N3CCC(NC4CC(C)OC(C)C4)CC3)c(-c3nc(C)no3)cc2c1 (centres unmarked) [compound 274] | 50
Cc1noc(-c2cc3cccc(C)c3nc2N2CCC(NC3CCOCC3)CC2)n1 [compound 275] | 98
CNC(=O)c1cc2cc(C)ccc2nc1N1CCC(NC2CCCCC2)C(OC)C1 (centres unmarked) [compound 278] | 4720
COC1CN(c2nc3ccc(C)cc3cc2C(=O)N(C)C)CCC1NC1CCCCC1 (centres unmarked) [compound 279] | 96

SMILES | IC50 [nM]
Cc1ccc2nc(N3CCC(NC4CCCCC4)C(CO)C3)c(C(=O)N(C)C)cc2c1 (centres unmarked) [compound 280] | 99
CCOC(=O)c1cc2cc(C)ccc2nc1N1CCC(NC2CCCCC2)C(OC)C1 (centres unmarked) [compound 281] | 30
COC1CN(c2nc3ccc(C)cc3cc2C(=O)OC(C)C)CCC1NC1CCCCC1 (centres unmarked) [compound 282] | 38
c1cnc(-c2cc3ccccc3nc2N2CCC(NC3CCOCC3)CC2)nc1 [compound 286] | 298
CCOC(=O)c1cc2cc(C)ccc2nc1N1CCC(NC2CCOCC2)CC1 [compound 289] | 184
CCc1noc(-c2cc3cc(C)ccc3nc2N2CCC(NC3CCOCC3)CC2)n1 [compound 290] | 47
COC1CN(c2nc3ccccc3cc2-c2nc(C)no2)CCC1NC1CCCCC1 (centres unmarked) [compound 292] | 33
CO[C@H]1CN(c2ncc(C)cc2-c2nc(C)no2)CC[C@H]1NC1CCCCC1 [compound 299] | 25
Cc1ccc2nc(N3CCC(NC4CCCCC4)C(CO)C3)c(-c3nnc(C)o3)cc2c1 (centres unmarked) [compound 301] | 38
Cc1ccc2nc(N3CCC(NC4CCOCC4)CC3)c(C(=O)OC(C)C)cc2c1 [compound 302] | 274
COC1CN(c2nc3cc(C)c(C)cc3cc2-c2nc(C)no2)CCC1NC1CCCCC1 (centres unmarked) [compound 306] | 107
Cc1noc(-c2cc3cc(C)c(C)cc3nc2N2CCC(NC3CCCCC3)C(CO)C2)n1 (centres unmarked) [compound 307] | 41
COC1CN(c2nc(C)c(C)cc2-c2nc(C)no2)CCC1NC1CCCC1 (centres unmarked) [compound 317] | 27
COC1CN(c2ncc(C)cc2-c2nc(C)no2)CCC1NC1CCOCC1 (centres unmarked) [compound 320] | 170
COC1CN(c2nc(C)c(C)cc2-c2nc(C)no2)CCC1NC1CCOCC1 (centres unmarked) [compound 321] | 105
COC1CN(c2nc3ccc(C)cc3cc2C(=O)N2CCCC2)CCC1NC1CCCCC1 (centres unmarked) [compound 323] | 1340
CO[C@@H]1CN(c2nc3ccc(F)cc3cc2-c2nc(C)no2)CC[C@@H]1NC1CCCCC1 [compound 331] | 27
CCOC(=O)c1noc(-c2cc3cc(C)ccc3nc2N2CCC(NC3CCCCC3O)CC2)n1 (centres unmarked) [compound 336] | 4360
CO[C@@H]1CN(c2ncc(C)cc2C(=O)OC(C)C)CC[C@@H]1NC1CCCCC1 [compound 361] | 1440
CCOC(=O)c1nc2cc(C)ccc2nc1N1CCC(NC2CCCCC2)C(CO)C1 (centres unmarked) [compound 373] | 63
COC1CN(c2nc3ccccc3cc2-c2nc(C)no2)CCC1NCC(C)C (centres unmarked) [compound 374] | 45

The next compounds have a lower IC50 than those just listed; values first:

IC50 [nM] | SMILES
10 | Cc1ccc2nc(N3CCC(NC4CCCC(O)C4)CC3)c(-c3nc(C)no3)cc2c1 (centres unmarked) [compound 255]
18 | COC1CN(c2nc3c(C)cccc3cc2-c2nc(C)no2)CCC1NC1CCCCC1 (centres unmarked) [compound 276]
9 | Cc1noc(-c2cc3cccc(C)c3nc2N2CCC(NC3CCCCC3)C(CO)C2)n1 (centres unmarked) [compound 277]
4 | CCc1noc(-c2cc3cc(C)ccc3nc2N2CCC(NC3CCCCC3)C(OC)C2)n1 (centres unmarked) [compound 283]
20 | CCc1noc(-c2cc3cc(C)ccc3nc2N2CCC(NC3CCCCC3)C(CO)C2)n1 (centres unmarked) [compound 284]
15 | CCOC(=O)c1cc2cc(C)ccc2nc1N1CCC(NC2CCCCC2)C(CO)C1 (centres unmarked) [compound 288]
18 | Cc1ccc2nc(N3CCC(NC4CCCCC4)C(CO)C3)c(C(=O)OC(C)C)cc2c1 (centres unmarked) [compound 291]
20 | COC1CN(c2nc3ccc(C)cc3cc2-c2nc(C)no2)CCC1NC1CCCCC1 (centres unmarked) [compound 293]
0.7 | CO[C@H]1CN(c2nc3ccc(C)cc3cc2-c2nc(C)no2)CC[C@H]1NC1CCCCC1 [compound 294]
2 | CO[C@H]1CN(c2nc3ccccc3cc2-c2nc(C)no2)CC[C@H]1NC1CCCCC1 [compound 295]
10 | CO[C@H]1CN(c2nc3ccc(F)cc3cc2-c2nc(C)no2)CC[C@H]1NC1CCCCC1 [compound 296]
2 | CCc1noc(-c2cc3cc(C)ccc3nc2N2CC[C@@H](NC3CCCCC3)[C@@H](OC)C2)n1 [compound 297]
16 | CO[C@H]1CN(c2nc(C)c(C)cc2-c2nc(C)no2)CC[C@H]1NC1CCCCC1 [compound 300]
0.5 | COC1CN(c2nc3ccc(C)cc3cc2-c2nc(C3CC3)no2)CCC1NC1CCCCC1 (centres unmarked) [compound 303]
3.5 | Cc1ccc2nc(N3CCC(NC4CCCCC4)C(CO)C3)c(-c3nc(C4CC4)no3)cc2c1 (centres unmarked) [compound 304]
17 | Cc1ccc2nc(N3CCC(NC4CCOCC4)CC3)c(-c3nc(C4CC4)no3)cc2c1 [compound 305]
2.5 | COC1CN(c2nc3ccccc3cc2-c2nc(C)no2)CCC1NC1CCCC1 (centres unmarked) [compound 308]
0.5 | COC1CN(c2nc3ccc(C)cc3cc2-c2nc(C)no2)CCC1NC1CCCC1 (centres unmarked) [compound 309]
4 | CCc1noc(-c2cc3cc(C)ccc3nc2N2CCC(NC3CCCC3)C(OC)C2)n1 (centres unmarked) [compound 310]
1 | COC1CN(c2nc3ccccc3cc2-c2nc(C)no2)CCC1NC1CCCCCC1 (centres unmarked) [compound 311]
0.7 | COC1CN(c2nc3ccc(C)cc3cc2-c2nc(C)no2)CCC1NC1CCCCCC1 (centres unmarked) [compound 312]

IC50 [nM] | SMILES
1.5 | CCc1noc(-c2cc3cc(C)ccc3nc2N2CCC(NC3CCCCCC3)C(OC)C2)n1 (centres unmarked) [compound 313]
23 | COC1CN(c2ncc(C)cc2-c2nc(C)no2)CCC1NC1CCCC1 (centres unmarked) [compound 316]
19 | COC1CN(c2ncc(C)cc2-c2nc(C)no2)CCC1NC1CCCCCC1 (centres unmarked) [compound 318]
21 | COC1CN(c2nc(C)c(C)cc2-c2nc(C)no2)CCC1NC1CCCCCC1 (centres unmarked) [compound 319]
8 | COC1CN(c2nc3ccccc3cc2-c2nc(C)no2)CCC1NC1CCOCC1 (centres unmarked) [compound 325]
1.9 | COC1CN(c2nc3ccc(C)cc3cc2-c2nc(C)no2)CCC1NC1CCOCC1 (centres unmarked) [compound 326]
5.6 | CCc1noc(-c2cc3cc(C)ccc3nc2N2CCC(NC3CCOCC3)C(OC)C2)n1 (centres unmarked) [compound 327]
19 | Cc1ccc2nc(N3CCC(NC4CCOCC4)CC3)c(-c3noc(C)n3)cc2c1 [compound 332]
0.99 | CO[C@H]1CN(c2nc3ccc(C)cc3cc2-c2noc(C)n2)CC[C@H]1NC1CCCCC1 [compound 338]
10.6 | CO[C@H]1CN(c2nc3ccc(C)cc3cc2C(=O)OC(C)C)CC[C@H]1NC1CCCCC1 [compound 343]
1.3 | Cc1ccc2nc(N3CCC(NC4CCCCC4C)CC3)c(-c3nc(C)no3)cc2c1 (centres unmarked) [compound 348]
21 | Cc1ccc2nc(N3CCC(NC(C)C4CCCCC4)CC3)c(-c3nc(C)no3)cc2c1 (centres unmarked) [compound 349]
0.97 | Cc1ccc2nc(N3CCC(NC4CCC(C)CC4)CC3)c(-c3nc(C)no3)cc2c1 (centres unmarked) [compound 350]
3 | CCCC(C)NC1CCN(c2nc3ccc(C)cc3cc2-c2nc(C)no2)CC1 (centres unmarked) [compound 351]
3.1 | Cc1ccc2nc(N3CCC(NCC4CCCCC4O)CC3)c(-c3nc(C)no3)cc2c1 (centres unmarked) [compound 352]
23 | CCOC(=O)c1nc2cc(C)ccc2nc1N1CCC(NC2CCCCC2)C(OC)C1 (centres unmarked) [compound 353]
4.2 | Cc1ccc2nc(N3CCC(NCC(C)C)CC3)c(-c3nc(C4CC4)no3)cc2c1 [compound 354]
12.5 | CO[C@H]1CN(c2ncc(C)cc2C(=O)OC(C)C)CC[C@H]1NC1CCCCC1 [compound 356]
22.3 | Cc1cnc(N2CCC(C)(NC3CCCCC3)CC2)c(-c2nc(C)no2)c1 [compound 357]
8 | Cc1ccc2nc(N3CCC(NCC(C)O)CC3)c(-c3nc(C)no3)cc2c1 (centres unmarked) [compound 360]
